This assay relates to hyaluronidase. The assay can be described thus: Examination for inhibiting hyaluronic acid degradation (hyaluronidase inhibition, p-DMAB colour reaction, OD 585 nm). The class given is biochemical. To be noted: final concentration: rosemary extract BG 0.000165 w/w % at dry weight, retinol acetate 0.0000516 w/w %; substrate sodium hyaluronate; absorbance OD 585 nm with control (water) adjusted to 100; FIG. 1. How it is done:
50 μl hyaluronidase solution (1 mg/ml) (Sigma Aldrich Japan K.K.) was placed into a microtube, and 50 μl of an evaluation drug was added, and then the mixture was incubated for 10 min at 37° C. Rosemary extract BG (Maruzen Pharmaceuticals, Co., Ltd.), retinol acetate (BASF Japan Ltd.), and rosemary extract and retinol acetate were used as the evaluation drug, and water was used as a control instead of the evaluation agent. Rosemary extract BG was added so that the final concentration thereof after addition of hyaluronic acid sodium aqueous solution was 0.000165 w/w % at dry weight. Retinol acetate was added so that the final concentration thereof after addition of hyaluronic acid sodium aqueous solution was 0.0000516 w/w %. After incubation, 400 μl of 1 mg/ml sodium hyaluronate (Shiseido Co., Ltd., MW 1,100,000-1,600,000) was added to the solution, and then incubated at 37° C., for 10 min, and then 50 μl of sodium hydroxide (0.2 M) was added to stop the reaction. This solution was boiled for 3 min, then cooled with flowing water. 300 μl of 10% p-DMAB (dimethylaminobenzaldehyde) solution (NACALAI TESQUE, Inc.) was added to the solution, and then incubated for 37° C. for 20 min. After bringing it back to room temperature, 100 μl of each solution was poured into each well of 96 well-plate, and OD 585 nm was determined by using […] Pharma Biomedical Co., Ltd.).

“Also recorded” adds a separate entry of the source.

retinol acetate: the hyaluronidase inhibitory activity result is listed as “does not have a hyaluronidase activity; also recorded: did not have a hyaluronidase inhibitory activity”.

These data come from US20200000704A1, “DEGRADATION INHIBITOR OF HYALURONIC ACID, COMPRISING ROSEMARY EXTRACT AND RETINOL ACETATE” (Shiseido Company, Ltd., priority 2012, published 2020).
